Experimental data from patent US7109243B2 (IRM LLC, priority 2003, dated 2006).

Experiments:
Cathepsin S = Cathepsin S (Homo sapiens, UniProt P25774); experiment: Cathepsin S inhibition assay (fluorogenic peptide substrate); assay type: biochemical; conditions: Table II, compounds of Formula I; read-out: Ki Cat. S
How it was run: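 Ki values come from nonlinear fitting of inhibited hydrolysis rates, taking free and total inhibitor concentrations as equal. Rates measured as rising fluorescence at 380/450 nm after reaction start with 50 μM final acetyl-HPVK-aminocarbamoylcoumarin.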

Cathepsin K = target: T1, Cathepsin K (Homo sapiens, UniProt P43235); experiment: Cathepsin K inhibition assay (fluorogenic peptide substrate); selectivity ratio vs cathepsin S; assay type: biochemical; conditions: ratio of cathepsin K inhibition constant to cathepsin S inhibition constant; Table II
T1 sequence (P43235 115-329): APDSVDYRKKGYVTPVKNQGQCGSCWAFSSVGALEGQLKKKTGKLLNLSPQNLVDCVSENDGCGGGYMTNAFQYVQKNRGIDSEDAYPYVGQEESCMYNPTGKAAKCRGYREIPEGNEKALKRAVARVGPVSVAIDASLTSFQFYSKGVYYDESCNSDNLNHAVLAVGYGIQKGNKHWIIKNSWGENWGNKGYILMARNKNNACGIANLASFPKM
How it was run: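 Fluorogenic kinetic assay, started with acetyl-Lys-His-Pro-Lys-aminocarbamoylcoumarin at 40 μM final, hydrolysis followed at ex 380/em 450 nm. Apparent inhibition constants from progress curves, converted to competitive inhibition constants. Selectivity expressed as isozyme inhibition constant divided by cathepsin S inhibition constant.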

Cathepsin S, sequence (P25774 115-331, species assumed): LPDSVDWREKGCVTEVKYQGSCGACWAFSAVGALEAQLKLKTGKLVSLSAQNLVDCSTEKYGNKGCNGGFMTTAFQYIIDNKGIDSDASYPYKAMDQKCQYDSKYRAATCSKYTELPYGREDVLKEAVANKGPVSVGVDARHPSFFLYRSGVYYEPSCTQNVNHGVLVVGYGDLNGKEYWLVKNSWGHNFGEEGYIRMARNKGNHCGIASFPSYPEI

SMILES | Ki (Cathepsin S) | Selectivity for Cat. S over Cat. K (Cathepsin K)
COc1ccc(NCCNC(=O)[C@H](CC2CCCCC2)NC(=O)c2cccc(C#N)c2)cc1 [Compound 120, (S)-3-Cyano-N-{2-cyclohexyl-1-[2-(4-methoxy-phenylamino)-ethylcarbamoyl]-ethyl}-benzamide] | < 100 nM | ++ (++, >100)
COc1ccc(NCCNC(=O)[C@H](CC2CCCCC2)NC(=O)c2ccc(C#N)cc2)cc1 [Compound 121, (S)-4-Cyano-N-{2-cyclohexyl-1-[2-(4-methoxy-phenylamino)-ethylcarbamoyl]-ethyl}-benzamide] | < 100 nM | + (+, >10)
C[C@@H](C(=O)N[C@@H](CC1CCCCC1)C(=O)NCCNc1ccc(OC(F)(F)F)cc1)c1ccccc1 [Compound 122, N-{2-cyclohexyl-1-(S)-[2-(4-trifluoromethoxy-phenylamino)-ethylcarbamoyl]-ethyl}-2-(R)-phenyl-propionamide] | < 100 nM | +++ (+++, >1000)
COc1ccc(NCCNC(=O)[C@H](CC2CCCCC2)NC(=O)c2cccc(-c3csc(C)n3)c2)cc1 [Compound 123, (S)-N-{2-Cyclohexyl-1-[2-(4-methoxy-phenylamino)-ethylcarbamoyl]-ethyl}-3-(2-methyl-thiazol-4-yl)-benzamide] | < 100 nM | ++ (++, >100)
O=C(Cc1cc(F)cc(F)c1)N[C@@H](CC1CCCCC1)C(=O)NCCNc1ccc(F)cc1 [Compound 125, 3-Cyclohexyl-2-(S)-[2-(3,5-difluoro-phenyl)-acetylamino]-N-[2-(4-fluoro-phenylamino)-ethyl]-propionamide] | < 100 nM | ++ (++, >100)

The next lines start with the values.

Ki (Cathepsin S) | Selectivity for Cat. S over Cat. K (Cathepsin K) | SMILES
< 100 nM | + (+, >10) | COc1ccc(NCCNC(=O)[C@H](CC2CCCCC2)NC(=O)c2cc3cc(F)ccc3[nH]2)cc1 [Compound 113, (S)-5-Fluoro-1H-indole-2-carboxylic acid {2-cyclohexyl-1-[2-(4-methoxy-phenylamino)-ethylcarbamoyl]-ethyl}-amide]
< 100 nM | ++ (++, >100) | COc1ccc(NCCNC(=O)[C@H](CC2CCCCC2)NC(=O)c2sc(N)nc2C)cc1 [Compound 114, (S)-2-Amino-4-methyl-thiazole-5-carboxylic acid {2-cyclohexyl-1-[2-(4-methoxy-phenylamino)-ethylcarbamoyl]-ethyl}-amide]
< 100 nM | +++ (+++, >1000) | COc1ccc(NCCNC(=O)[C@H](CC2CCCCC2)NC(=O)c2cnn(-c3ccccc3)c2C(F)(F)F)cc1 [Compound 115, (S)-1-Phenyl-5-trifluoromethyl-1H-pyrazole-4-carboxylic acid {2-cyclohexyl-1-[2-(4-methoxy-phenylamino)-ethylcarbamoyl]-ethyl}-amide]
< 100 nM | +++ (+++, >1000) | COc1ccc(NCCNC(=O)[C@H](CC2CCCCC2)NC(=O)c2cnn(-c3ccc(Cl)cc3)c2C(F)(F)F)cc1 [Compound 116, (S)-1-(4-Chloro-phenyl)-5-trifluoromethyl-1H-pyrazole-4-carboxylic acid {2-cyclohexyl-1-[2-(4-methoxy-phenylamino)-ethylcarbamoyl]-ethyl}-amide]
< 100 nM | ++ (++, >100) | COc1ccc(NCCNC(=O)[C@H](CC2CCCCC2)NC(=O)c2cccc(Cl)c2)cc1 [Compound 118, (S)-3-Chloro-N-{2-cyclohexyl-1-[2-(4-methoxy-phenylamino)-ethylcarbamoyl]-ethyl}-benzamide]
< 100 nM | + (+, >10) | COc1ccc(NCCNC(=O)[C@H](CC2CCCCC2)NC(=O)c2cccc(N(C)C)c2)cc1 [Compound 119, (S)-N-{2-Cyclohexyl-1-[2-(4-methoxy-phenylamino)-ethylcarbamoyl]-ethyl}-3-dimethylamino-benzamide]
